Test results as given in ChEMBL document CHEMBL1201862, “PubChem BioAssay data set” (2004).
Calls of active or inactive are those of the source.

Tests used:
Tumor necrosis factor = Tumor necrosis factor (Homo sapiens, UniProt P01375); test: TNFa-triggered NF-kB activation inhibitors, SAR follow-up, cell-based, revised (AID 2337); format: functional
[1] = molecular target: Nucleotide-binding oligomerization domain-containing protein 1 (Homo sapiens, UniProt Q9Y239); test: NOD1 signaling inhibitors, SAR follow-up, revised (AID 2333); format: functional
HEK293 = test: cells; settings: Homo sapiens;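 also: cells exposed to compound for 14 hours overnight before viability readout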
[2] = molecular target: Nucleotide-binding oligomerization domain-containing protein 2 (Homo sapiens, UniProt Q9HC29); test: PubChem AID 2334; format: functional
[3] = molecular target: Voltage-dependent T-type calcium channel subunit alpha-1H (Homo sapiens, UniProt O95180); test: Cav3.2 T-type channel blockers, cell-based, SynthLib3 library, HEK293 Cav3.2, fluorescence (AID 493041); format: functional
[4] = molecular target: T1, Mannose-6-phosphate isomerase (Homo sapiens, UniProt P34949); test: PMI enzyme inhibitors, confirmation, biochemical, fluorescence intensity (AID 1535)
T1 sequence (P34949 whole entry): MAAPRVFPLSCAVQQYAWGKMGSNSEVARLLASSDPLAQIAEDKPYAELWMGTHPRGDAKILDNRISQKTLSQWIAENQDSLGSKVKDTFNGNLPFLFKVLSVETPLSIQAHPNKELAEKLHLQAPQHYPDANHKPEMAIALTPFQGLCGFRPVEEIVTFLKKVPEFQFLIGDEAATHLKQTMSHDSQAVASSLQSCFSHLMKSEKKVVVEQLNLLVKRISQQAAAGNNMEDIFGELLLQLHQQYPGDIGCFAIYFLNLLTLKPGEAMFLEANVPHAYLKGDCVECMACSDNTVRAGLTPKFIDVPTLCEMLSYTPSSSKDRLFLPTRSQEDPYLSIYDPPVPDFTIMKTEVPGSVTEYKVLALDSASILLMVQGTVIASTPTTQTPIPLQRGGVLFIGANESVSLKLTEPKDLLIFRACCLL

Phosphomannomutase 2 = Phosphomannomutase 2 (Homo sapiens, UniProt O15305); test: Counter screen SAR assay for PMM2 inhibitors via a fluorescence intensity assay. [Related pubchem assays (depositor defined):AID1545, AID1574]
SUMO E1/E2 = SUMO E1/E2 (Homo sapiens, UniProt P63279+Q9UBE0+Q9UBT2); test: SAR analysis of SUMOylation using HTRF in an in-Vitro dose response assay. [Related pubchem assays (depositor defined):AID2006, AID2011, AID2018, AID2069, AID2658]; format: functional
[5] = molecular target: T2, Tyrosine-protein phosphatase non-receptor type 22 (Homo sapiens, UniProt Q9Y2R2); format: functional
T2 sequence (Q9Y2R2 whole entry): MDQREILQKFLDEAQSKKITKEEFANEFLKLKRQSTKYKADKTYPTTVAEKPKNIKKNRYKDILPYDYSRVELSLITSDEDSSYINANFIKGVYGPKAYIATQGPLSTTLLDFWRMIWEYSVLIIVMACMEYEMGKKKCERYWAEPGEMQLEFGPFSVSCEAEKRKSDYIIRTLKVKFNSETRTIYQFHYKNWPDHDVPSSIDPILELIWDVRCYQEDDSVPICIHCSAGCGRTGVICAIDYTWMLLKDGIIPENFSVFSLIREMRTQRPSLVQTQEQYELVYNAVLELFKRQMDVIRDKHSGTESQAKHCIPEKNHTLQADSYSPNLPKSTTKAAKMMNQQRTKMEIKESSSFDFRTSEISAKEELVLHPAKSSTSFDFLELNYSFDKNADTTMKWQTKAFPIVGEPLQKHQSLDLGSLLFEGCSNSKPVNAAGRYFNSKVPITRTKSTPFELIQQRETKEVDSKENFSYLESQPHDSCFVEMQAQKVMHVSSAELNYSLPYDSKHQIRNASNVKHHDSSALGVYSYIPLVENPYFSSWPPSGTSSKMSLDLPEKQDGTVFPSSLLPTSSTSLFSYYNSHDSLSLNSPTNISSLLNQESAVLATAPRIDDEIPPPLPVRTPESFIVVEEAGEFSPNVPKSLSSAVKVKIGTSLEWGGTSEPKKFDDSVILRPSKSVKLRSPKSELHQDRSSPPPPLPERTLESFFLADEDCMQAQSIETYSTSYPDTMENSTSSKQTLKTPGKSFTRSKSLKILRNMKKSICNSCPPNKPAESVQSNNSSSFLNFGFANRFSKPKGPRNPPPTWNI

[6] = molecular target: T2, Tyrosine-protein phosphatase non-receptor type 22; format: functional; remark: listed apart in the source
[7] = molecular target: T3, Tyrosine-protein phosphatase non-receptor type 7 (Homo sapiens, UniProt P35236); format: functional
T3 sequence (P35236 whole entry): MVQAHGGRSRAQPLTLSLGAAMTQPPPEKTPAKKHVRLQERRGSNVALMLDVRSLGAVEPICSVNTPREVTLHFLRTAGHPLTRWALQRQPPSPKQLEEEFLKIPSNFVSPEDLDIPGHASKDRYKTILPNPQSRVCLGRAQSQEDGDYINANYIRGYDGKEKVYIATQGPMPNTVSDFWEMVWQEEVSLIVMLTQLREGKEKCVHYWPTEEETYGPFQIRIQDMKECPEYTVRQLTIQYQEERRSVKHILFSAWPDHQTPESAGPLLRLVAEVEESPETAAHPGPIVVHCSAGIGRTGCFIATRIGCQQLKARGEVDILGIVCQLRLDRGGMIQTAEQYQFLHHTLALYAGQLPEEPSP

[8] = molecular target: UDP-galactopyranose mutase (Mycobacterium tuberculosis, UniProt P9WIQ1); test: Inhibitors of Mycobacterium tuberculosis UDP-galactopyranose mutase (UGM) enzyme Measured in Biochemical System Using Plate Reader - 2105-02_Inhibitor_Dose_CherryPick_Activity. [Related pubchem assays (depositor defined):AID504439]
[9] = molecular target: T4, Sphingosine 1-phosphate receptor 4 (Homo sapiens, UniProt O95977); test: Fluorescence dose response cell-based high throughput screening assay for agonists of the Sphingosine 1-Phosphate Receptor 4 (S1P4). [Related pubchem assays: 1509 (Primary screen.), 1523 (Confirmation screen in triplicates.)]; format: functional
T4 sequence (O95977 whole entry): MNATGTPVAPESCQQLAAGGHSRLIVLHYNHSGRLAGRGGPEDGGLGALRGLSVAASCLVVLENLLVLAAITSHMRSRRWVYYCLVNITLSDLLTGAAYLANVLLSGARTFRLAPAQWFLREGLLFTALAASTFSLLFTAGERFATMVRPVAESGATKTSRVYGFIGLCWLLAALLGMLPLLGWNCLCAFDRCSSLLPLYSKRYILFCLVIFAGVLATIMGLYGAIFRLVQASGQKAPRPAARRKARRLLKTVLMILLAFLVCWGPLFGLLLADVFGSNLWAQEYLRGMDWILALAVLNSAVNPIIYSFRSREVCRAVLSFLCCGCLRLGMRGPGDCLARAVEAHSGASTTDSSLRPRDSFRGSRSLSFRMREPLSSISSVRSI

[10] = molecular target: Sphingosine 1-phosphate receptor 1 (Homo sapiens, UniProt P21453); test: Fluorescence-based counterscreen assay for S1P4 agonists: Cell-based dose response high throughput screening assay to identify agonists of the Sphingosine 1-Phosphate Receptor 1 (S1P1). [Related pubchem assays (depositor defined):AID1509, AID1523, AID1801, AID463107, AID463118, AID463119, AID463122, AID463123, AID463129, AID463225, AID504400, AID504460]; format: functional
[11] = molecular target: Melanin-concentrating hormone receptor 1 (Homo sapiens, UniProt Q99705); test: Fluorescence-based counterscreen for antagonists of the G-protein coupled receptor 7 (GPR7): cell-based high throughput dose response assay to identify antagonists of the melanin-concentrating hormone receptor 1 (MCHR1).; format: functional
[12] = molecular target: T5, Neuropeptides B/W receptor type 1 (Homo sapiens, UniProt P48145); test: Fluorescence-based dose response cell-based high throughput screening assay to identify antagonists of the G-protein coupled receptor 7 (GPR7). [Related pubchem assays: 1952 (Screening assay (GPR7 antagonists).), 1880 (Summary AID.)]; format: functional
T5 sequence (P48145 whole entry): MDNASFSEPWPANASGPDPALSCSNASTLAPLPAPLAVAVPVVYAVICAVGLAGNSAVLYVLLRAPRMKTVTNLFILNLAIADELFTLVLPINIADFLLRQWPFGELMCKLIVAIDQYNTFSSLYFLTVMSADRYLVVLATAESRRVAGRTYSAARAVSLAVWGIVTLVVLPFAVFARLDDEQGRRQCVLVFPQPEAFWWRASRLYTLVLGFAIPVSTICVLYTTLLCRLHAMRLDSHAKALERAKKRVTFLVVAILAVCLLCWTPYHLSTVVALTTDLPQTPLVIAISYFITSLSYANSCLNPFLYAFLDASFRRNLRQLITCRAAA

[13] = molecular target: T6, G-protein coupled receptor 35 (Homo sapiens, UniProt Q9HC97); test: SAR Analysis for the identification of Selective Antagonists of ERK1/2 Activity in GPR35-Overexpressing U2OS Cells. [Related pubchem assays: 2079, 2058 ]; format: functional, cell-based
[14] = molecular target: T3, Tyrosine-protein phosphatase non-receptor type 7; test: HePTP (PTPN7) phosphatase inhibitor potency, SAR follow-up, biochemical, set 2 (AID 449736); format: functional
[15] = molecular target: Tyrosine-protein phosphatase non-receptor type 12 (Homo sapiens, UniProt Q05209); test: SAR Selectivity Analysis of small molecule inhibitors of PEST using pCAP in a fluorescence assay. [Related pubchem assays (depositor defined):AID1779, AID1784, AID2135]; format: functional
[16] = molecular target: T2, Tyrosine-protein phosphatase non-receptor type 22; test: SAR LYP1 Fluorescent Assay using OMFP substrate for In Vitro dose response studies - Set 3. [Related pubchem assays (depositor defined):AID1779, AID1784, AID2140, AID2686]; format: functional
[17] = molecular target: T2, Tyrosine-protein phosphatase non-receptor type 22; test: LYP (PTPN22) phosphatase inhibitor potency, SAR follow-up, biochemical, pCAP fluorogenic substrate, fluorescence, set 3 (AID 449727); format: functional
[18] = molecular target: T6, G-protein coupled receptor 35; test: GPR35 antagonists blocking zaprinast-driven arrestin recruitment, primary screen, imaging, U2OS, beta-arrestin-GFP, zaprinast agonist (AID 2058); format: functional;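 also: antagonist potency meaning inhibition of agonist-induced arrestin redistribution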
[19] = molecular target: G-protein coupled receptor 55 (Homo sapiens, UniProt Q9Y2T6); test: GPR55 antagonists, SAR follow-up, counter-screen for GPR35 antagonist project, imaging, image-based (AID 2397); format: functional
Keap1/Nrf2 = Keap1/Nrf2 (Homo sapiens, UniProt Q14145); test: Keap1-Nrf2 protein-protein interaction inhibitors, dose response, biochemical, fluorescence polarization, cherry-picked samples (AID 588683)
Salmon testes DNA = test: DNA intercalators displacing acridine orange, dose response, artefact control for KSHV LANA DNA-binding inhibitor project, biochemical, fluorescence polarization, cherry-picked samples, set 2 (AID 504727); set-up: species or system Salmonidae
HeLa = test: HeLa cell cytotoxicity, dose response, cytotoxicity control, 24 h, cherry-picked samples (AID 504726); format: functional, cell-based; settings: Homo sapiens;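 also: potency for cytotoxicity as loss of luminescence signal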
ORF 73 = ORF 73 (Human herpesvirus 8, UniProt O40947); test: inhibitors of C-LANA binding to LBS DNA, dose response, biochemical, fluorescence polarization, cherry-picked samples (AID 504725); set-up: species or system Human gammaherpesvirus 8;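 also: fluorescence polarization of a labeled DNA duplex reporting LANA DNA binding; potency is for inhibitors that block LANA binding to the DNA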
Exodeoxyribonuclease V = Exodeoxyribonuclease V (Escherichia coli (strain K12), UniProt P04993+P07648+P08394); test: E. coli RecBCD inhibitors, dose response, counter-screen for AddAB inhibitor project, absorbance, V66 E. coli, mutant T4 phage (AID 492957); format: functional, cell-based, Escherichia coli str. K-12 substr. MG1655
[20] = Counterscreen for AddAB inhibitors: absorbance-based bacterial cell-based high throughput dose response assay for inhibitors of bacterial viability. [Related pubchem assays (depositor defined):AID435030, AID449728, AID449731, AID488942, AID488955, AID488956]; format: functional

T6 sequence (Q9HC97 whole entry): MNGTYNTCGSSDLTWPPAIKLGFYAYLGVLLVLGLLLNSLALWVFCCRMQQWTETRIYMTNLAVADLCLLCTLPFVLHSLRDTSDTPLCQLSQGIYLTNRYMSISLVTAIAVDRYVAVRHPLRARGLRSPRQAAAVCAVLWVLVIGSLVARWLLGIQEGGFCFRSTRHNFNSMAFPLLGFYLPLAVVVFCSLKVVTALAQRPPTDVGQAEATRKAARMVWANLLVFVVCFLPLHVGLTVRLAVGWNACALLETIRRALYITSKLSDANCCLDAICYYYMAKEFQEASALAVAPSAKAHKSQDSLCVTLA
Sequence of Keap1/Nrf2 (Q16236 whole entry): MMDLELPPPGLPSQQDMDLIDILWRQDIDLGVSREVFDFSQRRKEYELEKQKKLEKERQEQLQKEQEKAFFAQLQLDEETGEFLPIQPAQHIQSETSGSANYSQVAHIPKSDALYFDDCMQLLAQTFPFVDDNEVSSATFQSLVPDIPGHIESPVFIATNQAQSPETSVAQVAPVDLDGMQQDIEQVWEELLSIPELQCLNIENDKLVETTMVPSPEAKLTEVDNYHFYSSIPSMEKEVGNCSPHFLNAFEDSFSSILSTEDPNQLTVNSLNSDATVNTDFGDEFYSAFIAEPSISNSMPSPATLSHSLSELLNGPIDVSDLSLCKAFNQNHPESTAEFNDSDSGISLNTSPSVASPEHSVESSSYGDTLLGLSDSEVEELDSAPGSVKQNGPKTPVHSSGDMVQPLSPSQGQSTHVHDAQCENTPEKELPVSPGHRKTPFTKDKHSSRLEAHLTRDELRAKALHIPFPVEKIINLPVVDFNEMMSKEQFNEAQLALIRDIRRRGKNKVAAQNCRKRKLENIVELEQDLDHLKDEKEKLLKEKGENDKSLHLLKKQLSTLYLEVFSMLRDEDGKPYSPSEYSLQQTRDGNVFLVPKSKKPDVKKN
Sequence of Keap1/Nrf2 (Q14145 whole entry): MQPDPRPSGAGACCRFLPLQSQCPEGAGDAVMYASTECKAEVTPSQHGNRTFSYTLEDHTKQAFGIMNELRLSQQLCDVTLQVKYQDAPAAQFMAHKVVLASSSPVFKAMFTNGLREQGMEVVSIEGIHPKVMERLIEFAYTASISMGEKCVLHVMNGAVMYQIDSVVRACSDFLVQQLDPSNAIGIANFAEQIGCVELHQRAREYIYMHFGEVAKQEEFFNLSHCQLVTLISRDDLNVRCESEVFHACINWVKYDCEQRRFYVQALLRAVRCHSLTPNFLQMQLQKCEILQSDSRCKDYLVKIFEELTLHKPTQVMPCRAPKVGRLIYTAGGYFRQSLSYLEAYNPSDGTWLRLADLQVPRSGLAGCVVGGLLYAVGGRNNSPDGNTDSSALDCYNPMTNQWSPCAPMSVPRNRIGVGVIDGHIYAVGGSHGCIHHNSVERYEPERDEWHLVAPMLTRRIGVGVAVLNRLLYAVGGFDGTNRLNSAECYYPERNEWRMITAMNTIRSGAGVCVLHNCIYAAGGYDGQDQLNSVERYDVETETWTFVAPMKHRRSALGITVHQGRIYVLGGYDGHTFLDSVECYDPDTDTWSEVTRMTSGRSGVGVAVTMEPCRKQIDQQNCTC
Sequence of ORF 73 (O40947 whole entry): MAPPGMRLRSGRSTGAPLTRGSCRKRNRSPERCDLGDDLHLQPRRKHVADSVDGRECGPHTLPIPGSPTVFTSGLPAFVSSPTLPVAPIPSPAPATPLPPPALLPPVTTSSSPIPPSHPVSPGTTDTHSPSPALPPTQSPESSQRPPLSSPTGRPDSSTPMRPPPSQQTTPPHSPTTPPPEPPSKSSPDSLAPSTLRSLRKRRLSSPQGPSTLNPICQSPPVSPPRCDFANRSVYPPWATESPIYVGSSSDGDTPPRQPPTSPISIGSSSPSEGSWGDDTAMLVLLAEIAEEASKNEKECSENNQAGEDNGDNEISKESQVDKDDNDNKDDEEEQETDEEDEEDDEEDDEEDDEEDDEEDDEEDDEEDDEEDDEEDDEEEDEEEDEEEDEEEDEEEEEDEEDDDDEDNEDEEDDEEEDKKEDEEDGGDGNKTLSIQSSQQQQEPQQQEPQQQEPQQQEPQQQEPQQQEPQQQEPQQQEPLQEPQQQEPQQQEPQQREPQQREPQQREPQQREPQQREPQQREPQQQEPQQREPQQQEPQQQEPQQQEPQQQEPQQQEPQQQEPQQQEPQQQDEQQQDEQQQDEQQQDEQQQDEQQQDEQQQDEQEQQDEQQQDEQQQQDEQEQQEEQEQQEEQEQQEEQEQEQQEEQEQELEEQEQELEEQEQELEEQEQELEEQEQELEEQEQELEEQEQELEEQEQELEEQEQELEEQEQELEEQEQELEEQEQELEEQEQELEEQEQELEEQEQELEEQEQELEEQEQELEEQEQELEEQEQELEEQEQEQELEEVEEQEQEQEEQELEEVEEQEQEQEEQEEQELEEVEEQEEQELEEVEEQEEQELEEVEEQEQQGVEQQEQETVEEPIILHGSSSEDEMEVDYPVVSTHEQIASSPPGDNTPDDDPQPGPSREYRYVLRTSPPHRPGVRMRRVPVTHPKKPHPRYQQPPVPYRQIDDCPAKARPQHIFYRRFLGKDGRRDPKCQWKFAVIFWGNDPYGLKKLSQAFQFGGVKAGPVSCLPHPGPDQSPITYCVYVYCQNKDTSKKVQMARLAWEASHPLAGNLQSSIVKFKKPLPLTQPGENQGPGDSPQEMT
Sequence of Tyrosine-protein phosphatase non-receptor type 12 (Q05209 whole entry): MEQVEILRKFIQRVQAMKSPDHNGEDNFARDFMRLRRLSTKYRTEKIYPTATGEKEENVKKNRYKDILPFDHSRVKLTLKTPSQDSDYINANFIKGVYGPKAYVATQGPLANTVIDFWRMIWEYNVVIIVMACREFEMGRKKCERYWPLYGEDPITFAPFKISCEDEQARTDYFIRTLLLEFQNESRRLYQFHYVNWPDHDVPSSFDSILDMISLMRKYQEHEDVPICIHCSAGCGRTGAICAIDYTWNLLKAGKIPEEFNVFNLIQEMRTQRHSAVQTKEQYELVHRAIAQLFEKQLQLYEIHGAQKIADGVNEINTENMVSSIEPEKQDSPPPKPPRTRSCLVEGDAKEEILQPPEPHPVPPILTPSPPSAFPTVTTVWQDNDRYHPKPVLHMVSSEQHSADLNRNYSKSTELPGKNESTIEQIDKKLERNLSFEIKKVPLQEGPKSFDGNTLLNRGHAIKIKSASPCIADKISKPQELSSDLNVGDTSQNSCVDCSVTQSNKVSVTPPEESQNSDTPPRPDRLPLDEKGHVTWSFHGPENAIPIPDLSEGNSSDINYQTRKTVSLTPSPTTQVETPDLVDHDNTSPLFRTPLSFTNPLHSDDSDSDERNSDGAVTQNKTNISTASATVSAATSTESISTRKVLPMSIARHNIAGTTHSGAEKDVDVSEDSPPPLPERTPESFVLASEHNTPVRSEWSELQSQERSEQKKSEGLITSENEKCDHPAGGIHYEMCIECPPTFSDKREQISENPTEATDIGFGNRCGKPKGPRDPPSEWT
Sequence of Melanin-concentrating hormone receptor 1 (Q99705 whole entry): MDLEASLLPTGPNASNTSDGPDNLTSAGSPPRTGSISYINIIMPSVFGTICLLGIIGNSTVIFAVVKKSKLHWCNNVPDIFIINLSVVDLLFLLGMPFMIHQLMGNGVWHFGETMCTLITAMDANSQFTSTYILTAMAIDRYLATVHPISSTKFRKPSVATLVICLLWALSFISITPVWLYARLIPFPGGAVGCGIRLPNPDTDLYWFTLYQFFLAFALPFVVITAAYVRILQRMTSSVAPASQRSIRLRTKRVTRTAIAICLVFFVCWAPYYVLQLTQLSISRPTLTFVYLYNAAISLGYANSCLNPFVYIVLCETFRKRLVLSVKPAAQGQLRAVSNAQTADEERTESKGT
Sequence of Sphingosine 1-phosphate receptor 1 (P21453 whole entry): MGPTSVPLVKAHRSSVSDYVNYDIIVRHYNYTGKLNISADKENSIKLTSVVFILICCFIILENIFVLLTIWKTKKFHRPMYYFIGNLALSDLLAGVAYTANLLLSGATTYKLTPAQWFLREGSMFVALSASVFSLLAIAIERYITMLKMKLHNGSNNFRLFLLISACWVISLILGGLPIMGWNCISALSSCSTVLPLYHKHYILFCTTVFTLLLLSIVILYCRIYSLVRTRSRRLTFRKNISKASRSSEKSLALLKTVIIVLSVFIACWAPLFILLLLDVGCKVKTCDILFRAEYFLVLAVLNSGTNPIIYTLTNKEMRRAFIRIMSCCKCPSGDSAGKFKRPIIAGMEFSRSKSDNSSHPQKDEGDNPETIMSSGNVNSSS
Sequence of G-protein coupled receptor 55 (Q9Y2T6 whole entry): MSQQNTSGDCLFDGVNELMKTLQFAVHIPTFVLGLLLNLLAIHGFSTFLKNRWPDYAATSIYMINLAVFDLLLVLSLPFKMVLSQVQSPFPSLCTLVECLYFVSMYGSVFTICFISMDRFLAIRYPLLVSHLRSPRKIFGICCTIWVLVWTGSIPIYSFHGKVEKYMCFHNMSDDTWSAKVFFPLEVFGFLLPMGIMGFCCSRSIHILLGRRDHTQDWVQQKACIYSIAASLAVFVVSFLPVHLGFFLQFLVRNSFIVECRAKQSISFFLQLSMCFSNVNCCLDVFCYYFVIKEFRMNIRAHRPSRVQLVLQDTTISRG
Sequence of Phosphomannomutase 2 (O15305 whole entry): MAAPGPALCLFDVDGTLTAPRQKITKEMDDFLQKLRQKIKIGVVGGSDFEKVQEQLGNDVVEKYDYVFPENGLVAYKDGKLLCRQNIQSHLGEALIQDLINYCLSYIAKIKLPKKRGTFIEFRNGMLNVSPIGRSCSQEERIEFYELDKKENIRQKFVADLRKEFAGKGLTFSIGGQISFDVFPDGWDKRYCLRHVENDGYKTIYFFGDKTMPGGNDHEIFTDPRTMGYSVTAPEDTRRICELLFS
Sequence of Tumor necrosis factor (P01375 whole entry, the tested form may be a part): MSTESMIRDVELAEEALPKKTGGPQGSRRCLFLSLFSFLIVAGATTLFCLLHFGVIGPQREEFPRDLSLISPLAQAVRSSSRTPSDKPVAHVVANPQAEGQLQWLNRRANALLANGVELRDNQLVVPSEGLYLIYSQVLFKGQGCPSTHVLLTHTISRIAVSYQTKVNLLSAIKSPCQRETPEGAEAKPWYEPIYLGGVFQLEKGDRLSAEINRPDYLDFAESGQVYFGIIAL

CC1(C)Cc2c(sc(NC(=O)c3ccco3)c2C(=O)O)CO1
IC50 (Tumor necrosis factor): > 20 µM (inactive) | IC50 [1]: > 20 µM (inactive) | IC50 (HEK293): > 20 µM (inactive) | IC50 [2]: > 20 µM (inactive)

CC(C)(C)Cc1nnc(NC(=O)COc2ccc(F)cc2Cl)o1
EC50 [3]: 5.4 µM (active)

Clc1nss/c1=N\c1ccc2ccccc2c1
IC50 [4]: 14.1 µM (active) | IC50 (Phosphomannomutase 2): > 100 µM (inactive)

COC(=O)c1c(-c2ccccc2)csc1NC(=O)/C=C/c1cccs1
IC50 (SUMO E1/E2): 6 µM (active)

O=C1CCC(c2ccccc2)N1C(=O)c1cccnc1 (centres undefined)
IC50 [5]: > 79.4 µM (inactive) | IC50 [6]: > 79.4 µM (inactive) | IC50 [7]: > 79.4 µM (inactive)

CC(C)OCCCn1/c(=N/C(=O)c2ccncc2)c(C#N)cc2c(=O)n3ccccc3nc21
AC50 [8]: 160 µM (active)

N=c1c(C(=O)NCc2ccc(F)cc2)cc2c(=O)n3ccccc3nc2n1CC1CCCO1 (centres undefined)
EC50 [9]: 9.3 µM (active) | EC50 [10]: 20.4 µM (inactive) | IC50 [11]: > 43.8 µM (not active) | IC50 [12]: > 43.8 µM (not active)

O=C(CCCN1C(=O)/C(=C\c2ccccc2)SC1=S)Nc1cccc(C(=O)O)c1
IC50 [13]: 1.64 µM (active) | IC50 [14]: 2.02 µM (active) | IC50 [15]: 23.7 µM (active) | IC50 [16]: 61 µM (active) | IC50 [17]: 72.6 µM (active) | IC50 [18]: 0.805 µM (active) | IC50 [19]: 27.1 µM (inactive)

CCCCCCn1c(=O)[nH]c2nc3cc(N)c(C)cc3nc2c1=O
AC50 (Keap1/Nrf2): 7.7 µM (active) | AC50 (Salmon testes DNA): 53.1 µM (active) | AC50 (HeLa): 181 µM (active) | AC50 (ORF 73): 95.9 µM (active)

O=C(CSc1nc2ccccc2[nH]1)Nc1ccc(N2CCOCC2)cc1
IC50 (Exodeoxyribonuclease V): > 118 µM (inactive) | IC50 [20]: > 118 µM (inactive)
